Laboratory results reported in the supplement of paper PMC10307832.

Assays:
Assay in all cases: relative viability (nuclei count vs DMSO), 5 days (fraction); higher = more cells survive
A-427 = test system: A-427
Method in brief: (§1)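 Lung cancer cell lines in 1536-well plates were dosed by pin tool the day after seeding, either with one drug alone or with a fixed anchor-drug dose plus five library-drug doses (not always all listed) in √10 steps. After 5 days, cells were fixed and their nuclei stained in one step (final 0.05% Triton X-100, 1% formaldehyde, 1 ug/ml Hoechst), then counted on 4× images. Relative viability is the nuclei count in treated wells divided by that in vehicle wells. Values are medians of duplicate plates.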

NCI-H2023 = test system: NCI-H2023
Method in brief: as §1

LC-2-ad = test system: LC-2-ad
Method in brief: as §1

ABC-1 = test system: ABC-1
Method in brief: as §1

NCI-H596 = test system: NCI-H596
Method in brief: as §1

NCI-H727 = test system: NCI-H727
Method in brief: as §1

PC-3 [JPC-3] = test system: PC-3 [JPC-3]
Method in brief: as §1

NCI-H520 = test system: NCI-H520
Method in brief: as §1

NCI-H650 = test system: NCI-H650
Method in brief: as §1

201T = test system: 201T
Method in brief: as §1

NCI-H441 = test system: NCI-H441
Method in brief: as §1

CAL-12T = test system: CAL-12T
Method in brief: as §1

NCI-H1915 = test system: NCI-H1915
Method in brief: as §1

NCI-H460 = test system: NCI-H460
Method in brief: as §1

NCI-H661 = test system: NCI-H661
Method in brief: as §1

H3255 = test system: H3255
Method in brief: as §1

BEN = test system: BEN
Method in brief: as §1

NCI-H2087 = test system: NCI-H2087
Method in brief: as §1

NCI-H1650 = test system: NCI-H1650
Method in brief: as §1

NCI-H1651 = test system: NCI-H1651
Method in brief: as §1

LCLC-97TM1 = test system: LCLC-97TM1
Method in brief: as §1

With `O=c1cc(-c2cccc3c2Sc2ccccc2S3)oc(N2CCOCC2)c1` + CC(C)C[C@H](NC(=O)[C@H](Cc1ccccc1)NC(=O)c1cnccn1)B(O)O [Bortezomib] (partner 0.002 µM) the relative viability (A-427; first compound 0.08 µM) was 1.09, the relative viability (A-427; first compound 0.253 µM) was 0.977 and the relative viability (A-427; first compound 0.8 µM) was 0.999. The relative viability (A-427; first compound 2.53 µM) was 0.931, the relative viability (A-427; first compound 8 µM) was 1.03 and the relative viability (NCI-H2023; first compound 0.08 µM) was 1. It also gave a relative viability (NCI-H2023; first compound 0.253 µM) of 1.1, a relative viability (NCI-H2023; first compound 0.8 µM) of 0.988 and a relative viability (NCI-H2023; first compound 2.53 µM) of 0.528. For the same compound, the relative viability (NCI-H2023; first compound 8 µM) was 0.937, the relative viability (LC-2-ad; first compound 0.08 µM) was 0.989 and the relative viability (LC-2-ad; first compound 0.253 µM) was 0.827. For the same compound, the relative viability (LC-2-ad; first compound 0.8 µM) was 1.06, the relative viability (LC-2-ad; first compound 2.53 µM) was 1.02 and the relative viability (LC-2-ad; first compound 8 µM) was 1.07. The relative viability (ABC-1; first compound 0.08 µM) was 0.364, the relative viability (ABC-1; first compound 0.253 µM) was 0.312 and the relative viability (ABC-1; first compound 0.8 µM) was 0.249. It also gave a relative viability (ABC-1; first compound 2.53 µM) of 0.333, a relative viability (ABC-1; first compound 8 µM) of 0.323 and a relative viability (NCI-H596; first compound 0.08 µM) of 0.985. For the same compound, the relative viability (NCI-H596; first compound 0.253 µM) was 1.18, the relative viability (NCI-H596; first compound 0.8 µM) was 0.959 and the relative viability (NCI-H596; first compound 2.53 µM) was 0.745. For the same compound, the relative viability (NCI-H596; first compound 8 µM) was 1.14, the relative viability (NCI-H727; first compound 0.253 µM) was 1.1 and the relative viability (NCI-H727; first compound 2.53 µM) was 0.66. The relative viability (NCI-H727; first compound 8 µM) was 0.972, the relative viability (PC-3 [JPC-3]; first compound 0.08 µM) was 0.875 and the relative viability (PC-3 [JPC-3]; first compound 0.253 µM) was 0.801. For the same compound, the relative viability (PC-3 [JPC-3]; first compound 0.8 µM) was 0.886, the relative viability (PC-3 [JPC-3]; first compound 2.53 µM) was 0.818 and the relative viability (PC-3 [JPC-3]; first compound 8 µM) was 1.12. It also gave a relative viability (NCI-H520; first compound 0.08 µM) of 0.679, a relative viability (NCI-H520; first compound 0.253 µM) of 0.619 and a relative viability (NCI-H520; first compound 0.8 µM) of 0.732. It also gave a relative viability (NCI-H520; first compound 2.53 µM) of 0.507, a relative viability (NCI-H520; first compound 8 µM) of 0.604 and a relative viability (NCI-H650; first compound 0.08 µM) of 0.701. It also gave a relative viability (NCI-H650; first compound 0.253 µM) of 0.74, a relative viability (NCI-H650; first compound 0.8 µM) of 0.869 and a relative viability (NCI-H650; first compound 2.53 µM) of 0.599. It also gave a relative viability (NCI-H650; first compound 8 µM) of 0.803, a relative viability (201T; first compound 0.08 µM) of 1.07 and a relative viability (201T; first compound 0.253 µM) of 1.15. It also gave a relative viability (201T; first compound 0.8 µM) of 1.15, a relative viability (201T; first compound 2.53 µM) of 1.02 and a relative viability (201T; first compound 8 µM) of 1.08. The relative viability (NCI-H441; first compound 0.08 µM) was 0.488, the relative viability (NCI-H441; first compound 0.253 µM) was 1.25 and the relative viability (NCI-H441; first compound 0.8 µM) was 0.98. It also gave a relative viability (NCI-H441; first compound 2.53 µM) of 0.45, a relative viability (NCI-H441; first compound 8 µM) of 0.594 and a relative viability (CAL-12T; first compound 0.08 µM) of 0.716. It also gave a relative viability (CAL-12T; first compound 0.253 µM) of 0.945, a relative viability (CAL-12T; first compound 0.8 µM) of 1.02 and a relative viability (CAL-12T; first compound 2.53 µM) of 0.98. It also gave a relative viability (CAL-12T; first compound 8 µM) of 1.05, a relative viability (NCI-H1915; first compound 0.08 µM) of 1.07 and a relative viability (NCI-H1915; first compound 0.253 µM) of 1.03. The relative viability (NCI-H1915; first compound 0.8 µM) was 1.09, the relative viability (NCI-H1915; first compound 2.53 µM) was 0.974 and the relative viability (NCI-H1915; first compound 8 µM) was 1.16. It also gave a relative viability (NCI-H460; first compound 0.08 µM) of 1.36, a relative viability (NCI-H460; first compound 0.8 µM) of 1.12 and a relative viability (NCI-H460; first compound 2.53 µM) of 1.02. The relative viability (NCI-H460; first compound 8 µM) was 1.87, the relative viability (NCI-H661; first compound 0.08 µM) was 0.808 and the relative viability (NCI-H661; first compound 0.253 µM) was 0.935. It also gave a relative viability (NCI-H661; first compound 0.8 µM) of 0.837, a relative viability (NCI-H661; first compound 2.53 µM) of 0.798 and a relative viability (NCI-H661; first compound 8 µM) of 0.912. It also gave a relative viability (H3255; first compound 0.08 µM) of 0.837, a relative viability (H3255; first compound 0.253 µM) of 0.835 and a relative viability (H3255; first compound 0.8 µM) of 0.837. The relative viability (H3255; first compound 2.53 µM) was 0.646, the relative viability (H3255; first compound 8 µM) was 1.07 and the relative viability (BEN; first compound 0.08 µM) was 0.802. It also gave a relative viability (BEN; first compound 0.253 µM) of 0.858, a relative viability (BEN; first compound 0.8 µM) of 0.991 and a relative viability (BEN; first compound 2.53 µM) of 0.889. It also gave a relative viability (BEN; first compound 8 µM) of 1.23, a relative viability (NCI-H2087; first compound 0.08 µM) of 1.06 and a relative viability (NCI-H2087; first compound 0.253 µM) of 1.02. For the same compound, the relative viability (NCI-H2087; first compound 0.8 µM) was 1.1, the relative viability (NCI-H2087; first compound 2.53 µM) was 0.792 and the relative viability (NCI-H2087; first compound 8 µM) was 0.888. For the same compound, the relative viability (NCI-H1650; first compound 0.08 µM) was 0.212, the relative viability (NCI-H1650; first compound 0.253 µM) was 0.168 and the relative viability (NCI-H1650; first compound 0.8 µM) was 0.189. The relative viability (NCI-H1650; first compound 2.53 µM) was 0.16, the relative viability (NCI-H1650; first compound 8 µM) was 0.184 and the relative viability (NCI-H1651; first compound 0.08 µM) was 0.925. It also gave a relative viability (NCI-H1651; first compound 0.253 µM) of 1.08, a relative viability (NCI-H1651; first compound 0.8 µM) of 0.935 and a relative viability (NCI-H1651; first compound 2.53 µM) of 0.906. For the same compound, the relative viability (NCI-H1651; first compound 8 µM) was 0.964, the relative viability (LCLC-97TM1; first compound 0.08 µM) was 0.732 and the relative viability (LCLC-97TM1; first compound 0.253 µM) was 0.387. For the same compound, the relative viability (LCLC-97TM1; first compound 0.8 µM) was 0.528, the relative viability (LCLC-97TM1; first compound 2.53 µM) was 0.344 and the relative viability (LCLC-97TM1; first compound 8 µM) was 1.16.
